As usually defined, the IC50 is the concentration that inhibits the measured activity by half.

Data set [1] deals with human platelet rich plasma (PRP) (Homo sapiens, UniProt P05106+P08514). Briefly: In Vitro Human Platelet Aggregation Assay. It is filed as cell-based. As to conditions: for IC50: human PRP, read-out: Human Platelet Aggregation IC50. The procedure, abridged: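 Citrated human PRP, diluted with PPP to about 300,000 platelets/μl from donors free of aspirin for two weeks, was preincubated with inhibitor or PBS for 5 minutes at 25° C. Aggregation was then triggered by collagen 1 μg/ml, U46619 100 ng/ml or ADP 17 μM and followed by light transmission.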
Sequence of human platelet rich plasma (PRP) (P08514 32-1039): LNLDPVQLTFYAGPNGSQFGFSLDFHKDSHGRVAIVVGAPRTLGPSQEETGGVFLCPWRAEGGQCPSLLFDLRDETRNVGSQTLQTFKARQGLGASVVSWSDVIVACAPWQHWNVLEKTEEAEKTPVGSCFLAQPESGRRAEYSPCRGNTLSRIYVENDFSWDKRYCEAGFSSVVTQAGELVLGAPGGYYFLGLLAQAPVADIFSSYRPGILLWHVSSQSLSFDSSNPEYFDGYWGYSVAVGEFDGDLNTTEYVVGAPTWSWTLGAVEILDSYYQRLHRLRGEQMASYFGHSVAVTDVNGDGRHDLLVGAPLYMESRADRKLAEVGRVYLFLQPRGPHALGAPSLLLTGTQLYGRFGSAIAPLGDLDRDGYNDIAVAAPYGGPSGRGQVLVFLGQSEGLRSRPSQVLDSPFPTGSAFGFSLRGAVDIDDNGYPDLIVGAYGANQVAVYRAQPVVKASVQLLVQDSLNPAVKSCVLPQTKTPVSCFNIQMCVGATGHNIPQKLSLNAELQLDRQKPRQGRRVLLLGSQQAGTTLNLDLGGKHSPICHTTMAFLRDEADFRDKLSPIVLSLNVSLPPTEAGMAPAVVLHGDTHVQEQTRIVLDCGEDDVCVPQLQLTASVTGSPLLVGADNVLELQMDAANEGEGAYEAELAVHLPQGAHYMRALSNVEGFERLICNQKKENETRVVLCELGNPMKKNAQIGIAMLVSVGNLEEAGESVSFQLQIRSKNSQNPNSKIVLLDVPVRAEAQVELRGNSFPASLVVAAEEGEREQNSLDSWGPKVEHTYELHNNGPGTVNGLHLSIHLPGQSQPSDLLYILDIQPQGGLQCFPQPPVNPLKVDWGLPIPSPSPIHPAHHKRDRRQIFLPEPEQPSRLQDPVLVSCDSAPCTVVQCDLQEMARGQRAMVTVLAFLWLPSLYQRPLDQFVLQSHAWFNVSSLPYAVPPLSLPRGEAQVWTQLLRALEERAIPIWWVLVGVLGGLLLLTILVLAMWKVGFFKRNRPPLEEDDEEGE
Sequence of human platelet rich plasma (PRP) (P05106 27-788): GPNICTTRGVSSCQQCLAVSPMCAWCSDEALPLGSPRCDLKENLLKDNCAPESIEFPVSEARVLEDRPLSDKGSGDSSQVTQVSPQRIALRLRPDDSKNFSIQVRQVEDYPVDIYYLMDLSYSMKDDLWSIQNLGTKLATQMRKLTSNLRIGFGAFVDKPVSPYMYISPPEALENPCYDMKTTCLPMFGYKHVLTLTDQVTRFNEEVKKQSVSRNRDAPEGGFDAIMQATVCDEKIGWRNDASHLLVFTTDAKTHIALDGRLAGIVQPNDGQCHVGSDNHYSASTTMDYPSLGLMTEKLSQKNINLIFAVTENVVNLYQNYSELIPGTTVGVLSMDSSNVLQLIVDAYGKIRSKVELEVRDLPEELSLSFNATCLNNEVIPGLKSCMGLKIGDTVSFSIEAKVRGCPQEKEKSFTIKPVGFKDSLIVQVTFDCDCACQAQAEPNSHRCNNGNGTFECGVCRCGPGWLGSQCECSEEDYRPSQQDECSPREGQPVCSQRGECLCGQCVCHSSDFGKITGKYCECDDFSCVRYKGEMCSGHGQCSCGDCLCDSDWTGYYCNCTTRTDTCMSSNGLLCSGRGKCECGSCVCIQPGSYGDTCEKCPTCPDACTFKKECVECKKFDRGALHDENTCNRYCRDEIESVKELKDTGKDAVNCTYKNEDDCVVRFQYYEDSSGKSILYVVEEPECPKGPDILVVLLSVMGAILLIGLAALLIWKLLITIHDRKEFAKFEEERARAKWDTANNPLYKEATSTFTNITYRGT

The target in a further data set is GP IIb IIIa (Homo sapiens, UniProt P05106+P08514). Briefly: GP IIb IIIa -von Willebrand factor (vWF) ELISA Assay. It counts as binding. Details: GP IIb IIIa, prepared by the method of Fitzgerald et al; from tissue. How it is done:
Microtiter plates are coated with 1.0 μg/ml GP IIb IIIa, prepared by the method of Fitzgerald et al., (Anal. Biochem. 151:169-177 [1985]) and allowed to incubate overnight in coat buffer. The plates are then washed three times in wash buffer (0.05% Tween 20 in PBS) and 150 μl of assay buffer is added and allowed to incubate for 1-2 hours at room temperature on plate shaker. The plates are washed three times and 50 μl of 2x inhibitor in assay buffer (Assay buffer: 0.5% BSA/50 mM Tris, 100 mM NaCl, 1.0 mM CaCl2, 1.0mM MgCl2, 1.0 mM MnCl2; coat buffer is the same but without BSA) is added. Fifty μl of 4.0 μg/ml vWF (prepared as described by Ledford et al., Thrombosis and Haemostasis, 64(4): 569-575 [1990]) in assay buffer is then added and allowed to incubate for one hour at room temperature on plate-shaker. The plates are washed three times and the antibody mixture is added (1:5000 of mouse anti-vWF and 1:5000 of rabbit-anti-mouse-Fc-HRP, both commercially available) in assay buffer and incubated for 1 hour at room temperature on plate-shaker. Plates are again washed three times and 100 μl of substrate solution (10 mg OPD, 6.5 μl H2 O2, 15 ml phosphate citrate buffer) is added and incubated at room temperature. The color change of OPD/H2 O2 reagent is read at 492 nm with a 405 nm reference wavelength on the filter photometer.
For orientation: In an ELISA, binding on a coated surface is turned into a signal by an enzyme label.

The target in data set [2] is T1, Vitronectin Receptor (αvβ3) (Homo sapiens, UniProt P05106+P06756).
T1 construct: Human vitronection receptor (VnR) is purified from human placenta; from tissue; host or cells: human placenta
T1 sequence (P06756 31-889 limits assumed): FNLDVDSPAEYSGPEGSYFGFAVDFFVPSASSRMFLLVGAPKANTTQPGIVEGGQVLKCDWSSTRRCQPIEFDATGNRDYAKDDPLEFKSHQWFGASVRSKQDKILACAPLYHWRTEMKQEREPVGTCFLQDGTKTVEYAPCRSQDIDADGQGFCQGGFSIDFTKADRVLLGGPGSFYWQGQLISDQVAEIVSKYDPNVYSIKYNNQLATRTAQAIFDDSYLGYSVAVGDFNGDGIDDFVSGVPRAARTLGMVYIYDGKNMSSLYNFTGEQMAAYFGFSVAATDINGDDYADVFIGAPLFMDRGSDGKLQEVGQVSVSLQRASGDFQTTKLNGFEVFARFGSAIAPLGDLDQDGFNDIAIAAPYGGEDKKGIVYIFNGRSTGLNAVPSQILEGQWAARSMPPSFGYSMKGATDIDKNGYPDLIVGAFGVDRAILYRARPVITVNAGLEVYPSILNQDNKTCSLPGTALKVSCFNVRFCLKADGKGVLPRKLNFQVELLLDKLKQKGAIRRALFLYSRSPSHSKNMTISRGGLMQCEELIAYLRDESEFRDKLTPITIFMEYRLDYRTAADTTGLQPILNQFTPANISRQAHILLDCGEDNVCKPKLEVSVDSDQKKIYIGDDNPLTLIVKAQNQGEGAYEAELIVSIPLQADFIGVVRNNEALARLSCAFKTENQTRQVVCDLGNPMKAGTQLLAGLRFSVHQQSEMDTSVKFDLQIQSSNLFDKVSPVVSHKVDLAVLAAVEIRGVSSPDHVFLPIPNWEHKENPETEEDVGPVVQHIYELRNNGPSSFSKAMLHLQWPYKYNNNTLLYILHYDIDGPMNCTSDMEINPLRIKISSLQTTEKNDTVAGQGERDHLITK
T1 sequence (P06756 891-1048 partner limits assumed): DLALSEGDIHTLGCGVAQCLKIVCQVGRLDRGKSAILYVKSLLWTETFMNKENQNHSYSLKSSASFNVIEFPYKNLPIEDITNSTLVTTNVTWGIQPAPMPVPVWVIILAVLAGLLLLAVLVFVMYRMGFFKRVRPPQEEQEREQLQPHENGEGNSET
T1 sequence (P05106 27-788): as the sequence (P05106 27-788) above
Briefly: Human Vitronectin-Vitronectin Receptor (αvβ3) ELISA Assay. It is filed as binding. To be noted: purified human αvβ3, vitronectin-coated plates; read-out: ELISA IC50 Vitronectin VnR. The text has this:
Human vitronectin (Vn) is isolated from human plasma and purified by affinity chromatography by the method of Yatohgo et. al., (Cell Structure and Function 13:281-292 [1988]).
Human vitronection receptor (VnR) is purified from human placenta by the method of Pytela et al., (Methods Enzymol., 144:475 [1987]). Alternatively the αvβ3 receptor can be purified from some cell lines (e.g., human embryonic kidney 293 cells) transfected with DNA sequences for both the αv and β3 subunits. The subunits are purified by employing octylglucoside extraction followed by Con-A, Heparin-Sepharose, and S-300 Chromatography.
Anti-GP IIb IIIa monoclonal antibodies specific for human GP IIIa are prepared by the method of Newman et al. (Blood, 65:227-232 [1985]), or a similar procedure. This mouse Mab is specific for the β3 subunit of the vitronectin receptor.
Rabbit Fab 2 anti-mouse Fc fragment horse radish peroxidase conjugate (anti-MuFc HRP) is obtained from PelFreeze (cat. no. 715305-1).
Maxisorp microtiter plates are coated with 2 μg/ml human vitronectin dissolved in PBS ([…]) and stored overnight at 4° C. The plates are washed two times with PBS-0.05% Tween-20 (wash buffer) and blocked by incubating with about 150 μl/well of assay buffer (1%, BSA [RIA grade or better] in 50 mM Tris-HCl, 100 mM NaCl, 1 mM MgCl2, CaCl2, MnCl2 pH 7.4) for 60 minutes. Dilutions of standards are prepared and putative inhibitors (Table 3) are dissolved in assay buffer. The blocked plates are emptied and 25 μl/well of inhibitor or standard solution is added to each well. Twenty-five μl of a 30 μg/ml solution of purified αvβ3 in assay buffer is pipetted into the coated plate. The final concentration of receptor in the assay well is about 15 μg/ml. The plate is incubated on a shaker for 60 minutes. Meanwhile, for each microtite plate, 6 ml buffer solution containing 1.5 μg/ml of mouse monoclonal antibody specific for β3 is prepared. To this solution is added μl of the secondary antibody, which is anti-mouse-Fc-HRP antibody conjugate. For example, for one plate, prepare 6 ml of a 1.5 μg/ml mouse Mab solution to which is added 1 μl of anti-mouse-Fc-HRP antibody stock, (this represents a 1:6000 dilution of the antibody - HRP conjugate). This mixture is allowed to incubate during the receptor-inhibitor incubation. The assay plates are washed 4 times with PBS-Tween and 50 μl/well of the antibody mixture is then pipetted into the plate for a 60 minute incubation. The plate is washed 4 times and the color reaction is developed with 50 μl/well of 0.67 mg/ml o-phenyldiamine in PBS containing 0.012% H2 O2. Alternatively, 16 mM citric acid, 50 mM Na2 PO4 at pH 5.0 can be used as a substrate buffer. The reaction is stopped with 50 μl/well 1M H2 SO4. The plates are read at 492-405 nm and the data analyzed by four-parameter fit.

The subject of data set [3] is New Zealand White rabbits. Briefly: Rabbit cutaneous bleeding time (CBT). As to conditions: for Rabbit BT Ratio: Example 1, at the % P.A. inhibition given.
Method: Unanesthetized male New Zealand White rabbits (2.5-3.5 kg) are placed in a standard rabbit restrainer. Ears are shaved and a 20 G Teflon catheter with flowswitch (Viggo) is placed in the medial artery, flushed with saline and locked with 1 ml of heparinized saline (10 m/ml). A 22 G catheter (Abbott) fitted with an injection cap (Medex) is placed in the marginal vein of the same ear. Saline or a GP IIb IIIa receptor antagonist, at a concentration of 1 to 3 mg/ml, is infused via the venous catheter. At time 0, 41% of the dose is given as a bolus over 2 minutes. The remainder is continuously infused over the following 60 minutes. Blood samples (3.2 ml) are collected into syringes without needles via the arterial catheter at -10, -5, 10, 45, and 60 minutes. The first 0.5 ml is discarded and the following 2.7 ml is collected directly into a syringe containing 0.3 ml of 3.8% sodium citrate. The sample is divided into 1.5 ml aliquots and centrifuged at room temperature for 5 seconds at 12,000 G. The resulting platelet rich plasma (PRP) is used to measure ex-vivo platelet aggregation (XPA). At -10 and 60 minutes an additional 1 cml sample is drawn for an automated blood count (Baker instruments). Catheters are flushed and locked after every sample.
CBT is measured at -10, -5, 10, and 45 minutes on the opposite ear, using an automated incision-making instrument (Surgicutt®, ITD). An incision (5mm×1 mm deep) is made on the dorsal surface of the ear at sites not supplied by major blood vessels. Blood is blotted away with absorbent paper placed near the incision site, every 2 to 15 seconds, to a maximum of 15 minutes. Cessation of bleeding is defined as no blood forming at the incision site for 15 seconds. The range of duplicate CBT in 40 normal rabbits was 0.88 to 3.38 minutes.
Where [4] appears, read: GP IIb IIIa-coated plates, vWF, read-out: ELISA IC50 GPIIb IIIa vWF.

Where “and” joins values, the source holds several entries; their conditions need not be identical. Equal values may be shown once. Read-outs that look alike come from different tables or passages of the source. *1 amine or outer side, *2 acyl side, *3 side chain or, on linkers, in order; H or OH if unused. Where a SMILES comes first, the peptide text is derived from it. Bridges are numbered along the chain shown (N, C = ends). [ ]: non-standard residue; d: D form. The star is where a group is joined. Ethylenediamine = C(CN[*:2])N[*:1]; Aad = N[C@@H](CCCC(=O)O)C(=O)O; NH(CH2)5NH2 = NCCCCCN*; NH(CH2)4NH2 = NCCCCN*; NH(CH2)3NH2 = NCCCN*

Sequence of GP IIb IIIa (P08514 32-887 limits assumed): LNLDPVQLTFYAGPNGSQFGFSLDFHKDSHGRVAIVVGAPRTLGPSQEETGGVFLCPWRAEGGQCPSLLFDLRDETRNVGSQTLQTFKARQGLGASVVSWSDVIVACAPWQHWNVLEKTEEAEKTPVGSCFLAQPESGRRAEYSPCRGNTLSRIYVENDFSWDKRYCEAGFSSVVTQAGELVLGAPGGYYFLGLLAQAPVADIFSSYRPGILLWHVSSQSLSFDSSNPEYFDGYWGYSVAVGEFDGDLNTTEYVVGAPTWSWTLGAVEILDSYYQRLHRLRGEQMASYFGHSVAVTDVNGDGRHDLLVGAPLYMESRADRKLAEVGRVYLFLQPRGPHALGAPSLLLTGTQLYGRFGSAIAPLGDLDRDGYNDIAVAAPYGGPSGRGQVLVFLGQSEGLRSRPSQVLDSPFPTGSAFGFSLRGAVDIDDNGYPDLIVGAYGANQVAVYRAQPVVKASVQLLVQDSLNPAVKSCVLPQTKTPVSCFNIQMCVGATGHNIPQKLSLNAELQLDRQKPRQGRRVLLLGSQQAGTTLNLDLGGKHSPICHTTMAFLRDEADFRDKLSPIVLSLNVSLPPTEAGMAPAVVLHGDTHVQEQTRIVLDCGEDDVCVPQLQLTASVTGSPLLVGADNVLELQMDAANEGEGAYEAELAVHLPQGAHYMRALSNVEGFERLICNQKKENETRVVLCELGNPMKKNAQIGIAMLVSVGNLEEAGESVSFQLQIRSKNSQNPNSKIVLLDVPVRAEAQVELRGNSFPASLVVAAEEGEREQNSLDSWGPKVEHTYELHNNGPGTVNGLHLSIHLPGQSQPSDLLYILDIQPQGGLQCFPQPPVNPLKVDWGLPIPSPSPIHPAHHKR
Sequence of GP IIb IIIa (P08514 891-1039 partner limits assumed): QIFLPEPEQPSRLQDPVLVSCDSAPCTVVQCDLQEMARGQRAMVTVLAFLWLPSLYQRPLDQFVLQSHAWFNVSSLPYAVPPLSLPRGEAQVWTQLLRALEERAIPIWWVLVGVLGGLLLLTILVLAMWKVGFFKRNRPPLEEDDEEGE
Sequence of GP IIb IIIa (P05106 27-788): as the sequence (P05106 27-788) above

As for `N=C(N)NCCC[C@@H]1NC(=O)[C@@H](Cc2ccc(O)cc2)NC(=O)CSC[C@@H](C(=O)O)NC(=O)[C@H](CC(=O)O)NC(=O)CNC1=O` [7/46, cyclo-S-acetyl-dTyr--Arg--Gly--Asp--Cys--OH] ({CH2CO}-[dY]RGDC-OH; thioether N-5), the values for the IC50 (in data set [1]; at GP IIb IIIa (setting [4]); in data set [2]) were 150 nM, 0.18 nM and 5 nM, respectively. Further, the “cutaneous bleeding time, result in words” value in data set [3] was “prolongation of bleeding time in vivo in both the rabbit and dog model”. The “increase of cutaneous bleeding time compared to the undosed animal” value in data set [3] (rabbit, dose sufficient to achieve about 97% inhibition of platelet aggregation) was determined as 8.0 times.
As for `N=C(N)NCCC[C@@H]1NC(=O)[C@@H](Cc2ccc(O)cc2)NC(=O)CSC[C@@H](C(=O)NCCN)NC(=O)[C@H](CC(=O)O)NC(=O)CNC1=O` [8/23, cyclo-S-acetyl-dTyr--Arg--Gly--Asp--Cys--NH--X (X = ethyl amine)] ({CH2CO}-[dY]RGDC-Ethylenediamine; thioether N-5), the figures for the IC50 (in data set [1]; on GP IIb IIIa (setting [4]); in data set [2]) were 470 nM, 4.67 nM and 35 nM, respectively. Moreover, the “Rabbit BT Ratio” value in data set [3] (rabbit) is listed as 0.81.
Take `N=C(N)NCCC[C@@H]1NC(=O)[C@@H](Cc2ccc(O)cc2)NC(=O)CCC[C@@H](C(=O)N[C@@H](CCCCN)C(N)=O)NC(=O)[C@H](CC(=O)O)NC(=O)CNC1=O` [10/20, cyclo(1-5)dTyr--Arg--Gly--Asp--L-α-aminoadipic acid-Lys--NH2] ([dY]RGD[Aad]K-NH2; lactam N-5): the IC50 came out at 183 nM in data set [1], 2.74 nM on GP IIb IIIa (setting [4]) and 20 nM in data set [2]. In data set [3] (rabbit), the “Rabbit BT Ratio” value is given as 2,0.
As for `N=C(N)NCCC[C@@H]1NC(=O)[C@@H](Cc2ccc(O)cc2)NC(=O)CSC[C@@H](C(=O)NCCCCCN)NC(=O)[C@H](CC(=O)O)NC(=O)CNC1=O` [8/13, cyclo-S-acetyl-dTyr--Arg--Gly--Asp--Cys--NH--X (X = pentylamine)] ({CH2CO}-[dY]RGDC-{NH(CH2)5NH2}; thioether N-5), the IC50 in data set [1] stood at 590 nM; on GP IIb IIIa (setting [4]) it was 5.3 nM; in data set [2] it was 32 nM. For the same compound, the “Rabbit BT Ratio” value in data set [3] (rabbit) is 1.13.
For `N=C(N)NCCC[C@@H]1NC(=O)[C@@H](Cc2ccc(O)cc2)NC(=O)CSC[C@@H](C(=O)NCCCN)NC(=O)[C@H](CC(=O)O)NC(=O)CNC1=O` [8/22, cyclo-S-acetyl-dTyr--Arg--Gly--Asp--Cys--NH--X (X = propyl amine)] ({CH2CO}-[dY]RGDC-{NH(CH2)3NH2}; thioether N-5), in that order: 387 nM, 4.73 nM, 36 nM and 1.27.
In the case of `N=C(N)NCCC[C@@H]1NC(=O)[C@@H](Cc2ccc(O)cc2)NC(=O)CSC[C@@H](C(=O)N[C@@H](CCCCN)C(N)=O)NC(=O)[C@H](CC(=O)O)NC(=O)CNC1=O` [7/3, cyclo-S-acetyl-dTyr--Arg--Gly--Asp--Cys--Lys--NH2] ({CH2CO}-[dY]RGDCK-NH2; thioether N-5), the figures for the IC50 (in data set [1]; at GP IIb IIIa (setting [4]); in data set [2]) were 320 nM, 15.9 nM and 60 nM, respectively. In addition, in data set [3] (dosed to 95% inhibition of platelet aggregation), the “increase in cutaneous bleeding time” value was 1.95 times. In data set [3] (rabbit), the “Rabbit BT Ratio” value came to 1.95.
For the compound `N=C(N)NCCC[C@@H]1NC(=O)[C@@H](Cc2ccc(O)cc2)NC(=O)CSC[C@@H](C(=O)NCCCCN)NC(=O)[C@H](CC(=O)O)NC(=O)CNC1=O` [8/12, cyclo-S-acetyl-dTyr--Arg--Gly--Asp--Cys--NH--X (X = butylamine)] ({CH2CO}-[dY]RGDC-{NH(CH2)4NH2}; thioether N-5), the values for the IC50 (in data set [1]; on GP IIb IIIa (setting [4]); in data set [2]) were 390 nM, 5.4 nM and 70 nM, respectively. Also, the “Rabbit BT Ratio” value in data set [3] (rabbit) amounted to 0.94.
As for `N=C(N)NCCC[C@H](NC(=O)[C@@H]1CSCC(=O)N[C@H](Cc2ccc(O)cc2)C(=O)N[C@@H](CCCNC(=N)N)C(=O)NCC(=O)N[C@@H](CC(=O)O)C(=O)N1)C(N)=O` [7/1, cyclo-S-acetyl-dTyr--Arg--Gly--Asp--Cys--Arg--NH2] ({CH2CO}-[dY]RGDCR-NH2; thioether N-5), the IC50 in data set [1] was 80 nM and 83 nM; at GP IIb IIIa (unit inferred, read-out: IC50 in the GPIIb IIIa -vWF ELISA) it was 13.8 nM; in data set [2], 49 nM. The “platelet aggregation inhibition potency, result in words” value in data set [1] (human platelet aggregation in vitro) is reported as “equipotent”. In addition, the “increase in cutaneous bleeding time” value in data set [3] (dosed to 100% inhibition of platelet aggregation) was 1.17 times. The “Rabbit BT Ratio” value in data set [3] (rabbit) is on record as 1.7.

These data come from patent publication US5493007A, “Platelet aggregation inhibitors having high specificity for GPIIBIIIA” (Genentech, Inc., priority 1994, dated 1996).
